# Biological target: T1, recombinant HsEg5 motor domain (amino acids 1-369-8His) (Homo sapiens, UniProt P52732)
# T1 construct: Enzyme was recombinant HsEg5 motor domain (amino acids 1-369-8His); 8His (C)
# T1 sequence (P52732 1-369): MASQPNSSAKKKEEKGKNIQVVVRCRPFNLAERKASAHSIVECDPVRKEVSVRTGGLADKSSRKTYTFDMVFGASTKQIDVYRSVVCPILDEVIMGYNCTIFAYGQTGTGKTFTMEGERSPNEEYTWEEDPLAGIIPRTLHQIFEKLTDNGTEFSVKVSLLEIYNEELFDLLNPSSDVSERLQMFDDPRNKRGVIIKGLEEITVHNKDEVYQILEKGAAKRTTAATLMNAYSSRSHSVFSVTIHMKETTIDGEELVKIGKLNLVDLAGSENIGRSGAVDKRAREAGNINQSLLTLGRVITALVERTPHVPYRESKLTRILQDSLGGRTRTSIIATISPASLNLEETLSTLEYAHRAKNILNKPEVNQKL
# Experiment: Malachite Green Assay (Eg5 motor ATPase, phosphate liberated from ATP)
# Format: biochemical
# Protocol: Enzymatic activity of the Eg5 motor and effects of inhibitors was measured using a malchite green assay, which measures phosphate liberated from ATP, and has been used previously to measure the activity of kinesin motors (Hackney and Jiang, 2001). Enzyme was recombinant HsEg5 motor domain (amino acids 1-369-8His) and was added at a final concentration of 6 nM to 100 μl reactions. Buffer consisted of 25 mM PIPES/KOH, pH 6.8, 2 mM MgCl2, 1 mM EGTA, 1 mM dtt, 0.01% Triton X-100 and 5 μM paclitaxel. Malachite green/ammonium molybdate reagent was prepared as follows: for 800 ml final volume, 0.27 g of Malachite Green (J. T. Baker) was dissolved in 600 ml of H2O in a polypropylene bottle. […]
# 5 μl of compound diluted in 12% DMSO was added to the wells of 96 well plates. […] The reactions were then quenched by the addition of 150 μl malachite green/ammonium molybdate reagent, and absorbance read at 650 nanometers exactly 5 min after quench using a Spectramax Plus plate reader (Molecular Devices). Data was graphed and IC50s calculated using ExCel Fit (Microsoft).
# Enzymatic activity of the Eg5 motor and effects of inhibitors was measured using a malachite green assay, which measures phosphate liberated from ATP, and has been used previously to measure the activity of kinesin motors (Hackney and Jiang, 2001). […] Data was graphed and IC50s calculated using ExCel Fit (Microsoft).
row,IC50 [nM],SMILES
1,136,"CCC(c1nc2snc(C)c2c(=O)n1Cc1ccccc1)N(CCCN)C(=O)c1cccc(Cl)c1Cl (single isomer, unassigned; (+)) [Section 3: Example A7, (+) N-(3-Amino-propyl)-N-[1-(5-benzyl-3-methyl-4-oxo-4,5-dihydro-isothiazolo[5,4-d]pyrimidin-6-yl)-propyl]-2,3-dichloro-benzamide hydrogen chloride]"
2,90,"CCC(c1nc2c(C)nsc2c(=O)n1Cc1ccccc1)N(CCCN)C(=O)c1ccc(C)cc1 (centres unmarked) [Section 2: Example E1, N-(3-Amino-propyl)-N-[1-(6-benzyl-3-methyl-7-oxo-6,7-dihydro-isothiazolo[4,5-d]pyrimidin-5-yl)-propyl]-4-methyl-benzamide hydrogen chloride]"

# Reference: patent publication US20060063751A1, “Novel fused heterocycles and uses thereof” (AstraZeneca AB, priority 2003, published 2006)
